Common to all, as to assay type: functional
Experiment [1] has as its system A-375. Kind of experiment: Induction of apoptosis in human A375 cells assessed as viable cells at 1 uM after 24 hrs by Annexin V-FITC/propidium iodide staining based flow cytometry (reference value: 90.6 to 94.3%). The settings on record: A-375, 24 h, read-out: Activity. For orientation: Flow cytometry measures light scatter and fluorescence of single cells or particles in a stream.

Experiment [2] concerns A-375. Kind of experiment: Induction of apoptosis in human A375 cells assessed as early apoptotic cells at 3 uM after 12 hrs by Annexin V-FITC/propidium iodide staining based flow cytometry (reference value: 1.22 to 1.64%).
Experiment [3] deals with A-375. The experiment is described as follows: Induction of apoptosis in human A375 cells assessed as viable cells at 3 uM after 12 hrs by Annexin V-FITC/propidium iodide staining based flow cytometry (reference value: 90.6 to 94.3%). To be noted: A-375, 12 h, read-out: Activity.
The test system of experiment [4] is A-375. Kind of experiment: Induction of apoptosis in human A375 cells assessed as necrotic cells at 3 uM after 36 hrs by Annexin V-FITC/propidium iodide staining based flow cytometry (reference value: 0.635 to 3.12%).
Experiment [5] concerns A-375. Kind of experiment: Induction of apoptosis in human A375 cells assessed as late apoptotic cells at 3 uM after 36 hrs by Annexin V-FITC/propidium iodide staining based flow cytometry (reference value: 3.80 to 4.61%).
In experiment [6] the test system is A-375. Kind of experiment: Cell cycle arrest in human A375 cells assessed as accumulation at G2/M phase at 1 uM after 24 hrs by propidium iodide staining-based flow cytometry (reference value: 7.91 to 21.07%).
Experiment [7] has as its system A-375. The experiment is described as follows: Cell cycle arrest in human A375 cells assessed as accumulation at G1 phase at 3 uM after 24 hrs by propidium iodide staining-based flow cytometry (reference value: 59.02 to 60.22%).
Experiment [8] concerns A-375. Kind of experiment: Cell cycle arrest in human A375 cells assessed as accumulation at G2/M phase at 3 uM after 24 hrs by propidium iodide staining-based flow cytometry (reference value: 7.91 to 21.07%).
The subject of experiment [9] is A-375. The experiment is described as follows: Cell cycle arrest in human A375 cells assessed as accumulation at G2/M phase at 10 uM after 24 hrs by propidium iodide staining-based flow cytometry (reference value: 7.91 to 21.07%).
Experiment [10] deals with A-375. Kind of experiment: Cell cycle arrest in human A375 cells assessed as accumulation at G2/M phase at 3 uM after 12 hrs by propidium iodide staining-based flow cytometry (reference value: 7.91 to 21.07%).
Experiment [11] deals with A-375. Kind of experiment: Cell cycle arrest in human A375 cells assessed as accumulation at G1 phase at 3 uM by propidium iodide staining-based flow cytometry. To be noted: TDE = time-dependent effect.

For one compound, viability and Activity results are on record in ChEMBL document CHEMBL4190403, “Design, synthesis, and biological evaluation of pyrazole derivatives containing acetamide bond as potential BRAFV600E inhibitors” (Bioorg Med Chem Lett, 2018).

In the case of `COc1ccc(-n2cc(NC(=O)Cn3ccc(-c4cccc(Cl)c4)n3)cn2)cc1`, in the experiment with A-375 [1], the viability at 1 µM is 79.5%. In addition, the Activity in the experiment with A-375 [2] was 5.22%; in the experiment with A-375 [4], 5.58%; in the experiment with A-375 [5], 59.7%; in the experiment on A-375 [6], 15.89%; in the experiment on A-375 [7], 40.19 - 43.48%; with A-375 [8], 9.69 - 9.82%. Also, the Activity was 10.95% in the experiment with A-375 [9], 11.44% in the experiment on A-375 [10] and “Tde” with A-375 [11]. In addition, the viability at 3 µM with A-375 [3] amounted to 65.3%.
